Assay results from the supplement of paper PMC10307832.

Key:
Experiment in all cases: relative viability (nuclei count vs DMSO), 5 days (fraction); higher = more cells survive
[1] = compound: C1COCCN1C2=NC(=NC3=C2OC4=C3C=CC=N4)C5=CC(=CC=C5)NC(=O)C6=CN=C(C=C6)N + Cc1cc(Nc2cc(N3CCN(C)CC3)nc(Sc3ccc(NC(=O)C4CC4)cc3)n2)n[nH]1 [Tozasertib] (partner 0.1 µM)
Procedure, shortened: (§1)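 Lung cancer cell lines, seeded in 1536-well plates, were treated the following day by pin tool with a single drug or with five library-drug doses (not always all listed) in √10 steps on top of a fixed anchor-drug dose. Cells were fixed and nuclei stained in one step after 5 days, and nuclei were counted. Relative viability is the nuclei count for treated wells divided by that for vehicle wells, reported as medians of duplicate plates.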

Entinostat + AZD7762 = compound: Nc1ccccc1NC(=O)c1ccc(CNC(=O)OCc2cccnc2)cc1 [Entinostat] + NC(=O)Nc1cc(-c2cccc(F)c2)sc1C(=O)N[C@H]1CCCNC1 [AZD7762] (partner 0.2 µM)
Procedure, shortened: as §1

SGI-1776 + Tozasertib = compound: CN1CCC(CNc2ccc3ncc(-c4cccc(OC(F)(F)F)c4)n3n2)CC1 [SGI-1776] + Cc1cc(Nc2cc(N3CCN(C)CC3)nc(Sc3ccc(NC(=O)C4CC4)cc3)n2)n[nH]1 [Tozasertib] (partner 0.1 µM)
Procedure, shortened: as §1

SGI-1776 + Luminespib = compound: CN1CCC(CNc2ccc3ncc(-c4cccc(OC(F)(F)F)c4)n3n2)CC1 [SGI-1776] + CCNC(=O)c1noc(-c2cc(C(C)C)c(O)cc2O)c1-c1ccc(CN2CCOCC2)cc1 [Luminespib] (partner 0.01 µM)
Procedure, shortened: as §1

Cell Line	relative viability ([1]; first compound 0.02 µM)	relative viability ([1]; first compound 0.06325 µM)	relative viability ([1]; first compound 0.2 µM)	relative viability ([1]; first compound 0.6325 µM)	relative viability ([1]; first compound 2 µM)	relative viability (Entinostat + AZD7762; first compound 0.02 µM)	relative viability (Entinostat + AZD7762; first compound 0.06325 µM)	relative viability (Entinostat + AZD7762; first compound 0.2 µM)	relative viability (Entinostat + AZD7762; first compound 0.6325 µM)	relative viability (Entinostat + AZD7762; first compound 2 µM)	relative viability (SGI-1776 + Tozasertib; first compound 0.08 µM)	relative viability (SGI-1776 + Tozasertib; first compound 0.8 µM)	relative viability (SGI-1776 + Tozasertib; first compound 2.53 µM)	relative viability (SGI-1776 + Tozasertib; first compound 8 µM)	relative viability (SGI-1776 + Luminespib; first compound 0.08 µM)	relative viability (SGI-1776 + Luminespib; first compound 0.8 µM)	relative viability (SGI-1776 + Luminespib; first compound 2.53 µM)	relative viability (SGI-1776 + Luminespib; first compound 8 µM)
NCI-H1437	0.437	0.424	0.398	0.377	0.241	1.12	0.947	0.781	0.396	0.369	0.435	0.439	0.344	0.314	1.12	1.19	1.22	1.12
EKVX	0.396	0.391	0.34	0.408	0.236	0.763	0.645	0.645	0.416	0.265	0.4	0.398	0.307	0.235	0.868	0.937	0.875	0.863
NCI-H460	0.465	0.509	0.209	0.392	0.0489	0.65	0.651	0.559	0.233	0.0734	0.475	0.278	0.0744	0.0448	0.0293	0.0297	0.0268	0.019
NCI-H1993	0.551	0.569	0.524	0.567	0.538	0.777	0.741	0.69	0.468	0.366	0.568	0.607	0.57	0.571	0.882	0.964	0.676	0.652
HCC-78	0.394	0.427	0.432	0.367	0.24	0.609	0.687	0.466	0.327	0.254	0.466	0.318	0.41	0.308	–	–	–	–
NCI-H2087	0.249	0.265	0.202	0.258	0.209	1.22	0.975	1.04	1.03	0.355	0.257	0.198	0.186	0.192	0.138	0.212	0.183	0.17
H3255	0.779	0.639	0.736	0.847	0.957	1	0.901	0.756	0.539	0.333	0.574	0.825	0.625	0.277	0.988	1.1	0.894	0.665
NCI-H2126	0.868	0.895	0.767	0.702	0.518	0.936	1.03	1.01	0.737	0.495	0.926	0.607	0.553	0.239	0.933	0.972	0.947	0.774
LCLC-103H	0.537	0.511	0.471	0.46	0.35	0.818	0.866	0.719	0.474	0.432	0.495	0.506	0.424	0.211	0.965	0.88	0.948	0.729
RERF-LC-KJ	0.594	0.577	0.35	0.327	0.326	1.12	1.07	0.748	0.707	0.329	0.473	0.412	0.235	0.225	1.23	1.17	0.904	0.688
HCC-15	0.462	0.438	0.19	0.205	0.208	1.19	1.2	1.26	0.774	0.457	0.386	0.312	0.118	0.112	0.353	0.34	0.325	0.186
NCI-H1650	0.472	0.425	0.328	0.338	0.255	–	–	–	–	–	0.374	0.287	0.214	0.226	0.211	0.198	0.195	0.172
COR-L 105	0.325	0.352	0.329	0.359	0.31	–	–	–	–	–	0.334	0.286	0.352	0.318	0.741	0.713	0.691	0.834
NCI-H596	0.85	0.932	0.874	0.761	0.661	1.19	1.11	1.14	0.817	0.829	1.07	1.04	0.792	0.577	0.975	0.934	0.798	0.941
LXF-289	0.177	0.181	0.156	0.145	0.119	1.05	1.14	1.07	0.952	0.473	0.171	0.212	0.184	0.0856	0.688	0.654	0.665	0.598
NCI-H1703	–	–	–	–	–	0.109	0.153	0.129	0.116	0.106	–	–	–	–	–	–	–	–
NCI-H2170	0.742	0.828	0.633	0.703	0.445	0.876	0.878	0.825	0.602	0.193	0.708	0.692	0.452	0.181	0.723	0.669	0.668	0.419
NCI-H522	0.491	0.497	0.472	0.374	0.541	0.779	0.846	0.85	1.07	0.796	0.654	0.557	0.502	0.523	1.16	1.1	1.09	0.972
LOU-NH91	0.591	0.738	0.649	0.652	0.465	0.729	0.807	0.735	0.664	0.653	0.711	0.594	0.459	0.341	0.366	0.345	0.367	0.305
NCI-H1355	0.628	0.602	0.515	0.36	0.352	0.634	0.789	0.618	0.546	0.369	0.591	0.408	0.305	0.217	0.68	0.625	0.607	0.551
NCI-H322M	0.535	0.49	0.471	0.401	0.338	0.591	0.64	0.958	0.731	0.621	0.551	0.483	0.461	0.394	0.999	0.901	0.881	0.635

Cell Line	relative viability ([1]; first compound 0.02 µM)	relative viability ([1]; first compound 0.06325 µM)	relative viability ([1]; first compound 0.2 µM)	relative viability ([1]; first compound 0.6325 µM)	relative viability ([1]; first compound 2 µM)	relative viability (Entinostat + AZD7762; first compound 0.02 µM)	relative viability (Entinostat + AZD7762; first compound 0.06325 µM)	relative viability (Entinostat + AZD7762; first compound 0.2 µM)	relative viability (Entinostat + AZD7762; first compound 0.6325 µM)	relative viability (Entinostat + AZD7762; first compound 2 µM)	relative viability (SGI-1776 + Tozasertib; first compound 0.08 µM)	relative viability (SGI-1776 + Tozasertib; first compound 0.8 µM)	relative viability (SGI-1776 + Tozasertib; first compound 2.53 µM)	relative viability (SGI-1776 + Tozasertib; first compound 8 µM)	relative viability (SGI-1776 + Luminespib; first compound 0.08 µM)	relative viability (SGI-1776 + Luminespib; first compound 0.8 µM)	relative viability (SGI-1776 + Luminespib; first compound 2.53 µM)	relative viability (SGI-1776 + Luminespib; first compound 8 µM)
NCI-H1395	0.78	0.709	0.772	0.719	0.576	0.39	0.386	0.395	0.373	0.356	0.83	0.817	0.644	0.39	0.768	0.772	0.573	0.414
NCI-H2023	0.371	0.369	0.158	0.142	0.13	–	–	–	–	–	0.325	0.224	0.165	0.148	0.746	0.77	0.693	0.363
NCI-H1666	0.614	0.615	0.588	0.513	0.501	1.07	0.918	0.812	0.835	0.519	0.667	0.44	0.406	0.436	1.03	0.995	0.972	0.877
HARA	0.0879	0.0809	0.112	0.0875	0.125	0.37	0.229	0.34	0.215	0.244	0.18	0.101	0.0992	0.0856	0.862	0.67	0.67	0.0476
NCI-H1944	0.259	0.263	0.228	0.209	0.173	0.413	0.463	0.394	0.259	0.238	0.247	0.252	0.253	0.226	0.871	0.67	0.669	0.618
NCI-H2405	0.762	0.75	0.715	0.73	0.607	0.795	0.896	0.704	0.641	0.495	0.711	0.484	0.353	0.314	0.647	0.632	0.538	0.452
201T	0.959	1.04	0.915	0.913	0.452	0.694	0.711	0.601	0.402	0.328	0.982	0.901	0.549	0.366	1.04	1.09	1.05	1.03
COR-L23	0.219	0.223	0.143	0.181	0.159	–	–	–	–	–	0.204	0.156	0.115	0.11	0.702	0.68	0.743	0.511
NCI-H1563	–	–	–	–	–	–	–	–	–	–	–	–	–	–	0.522	0.497	0.515	0.538
NCI-H2009	0.8	0.749	0.726	0.655	0.433	–	–	–	–	–	0.646	0.543	0.449	0.387	1.04	1.03	0.977	0.955
NCI-H1623	0.376	0.457	0.411	0.432	0.461	–	–	–	–	–	0.436	0.425	0.39	0.45	0.468	0.612	0.576	0.506
NCI-H661	0.34	0.347	0.328	0.342	0.354	–	–	–	–	–	0.347	0.378	0.336	0.379	0.996	0.977	1	0.913
SK-LU-1	0.348	0.287	0.266	0.284	0.314	–	–	–	–	–	0.397	0.265	0.212	0.207	0.217	0.192	0.19	0.167
HCC-366	0.0782	0.144	0.0599	0.0546	0.0428	0.262	0.29	0.272	0.107	0.121	0.115	0.0741	0.0957	0.0418	–	–	–	–
SW 1573	0.207	0.159	0.175	0.188	0.152	–	–	–	–	–	0.174	0.16	0.174	0.17	0.281	0.653	0.314	0.185
NCI-H1648	0.468	0.48	0.473	–	0.617	0.789	0.715	0.725	0.566	0.485	0.58	0.503	0.451	0.284	–	–	–	–
SK-MES-1	0.957	1.01	0.824	0.851	0.362	–	–	–	–	–	0.964	0.35	0.154	0.133	0.856	0.849	0.395	0.386
NCI-H520	0.431	0.437	0.413	0.479	0.327	–	–	–	–	–	0.436	0.442	0.427	0.385	0.209	0.218	0.244	0.281
NCI-H1792	–	–	–	–	–	0.731	0.747	0.465	0.236	0.153	–	–	–	–	0.371	0.558	0.431	0.264
NCI-H2228	0.227	0.204	0.193	0.213	0.186	–	–	–	–	–	0.253	0.145	0.117	0.148	0.169	0.139	0.164	0.13
